Laboratory results as given in patent publication US10730911B2, “Backbone-cyclized peptidomimetics with GLP-1R modulating activity” (POLYPHOR AG, priority 2015, dated 2020).
Where a SMILES comes first, the peptide text is derived from it. [ ]: non-standard residue; d: D form. Trp(5-OH) = N[C@@H](Cc1c[nH]c2ccc(O)cc12)C(=O)O; Tyr(Ph) = N[C@@H](Cc1ccc(Oc2ccccc2)cc1)C(=O)O; His(π-Bn) = N[C@@H](Cc1cncn1Cc1ccccc1)C(=O)O; Phe(4-NH2) = Nc1ccc(C[C@H](N)C(=O)O)cc1; 3Pal = N[C@@H](Cc1cccnc1)C(=O)O; Aic = NC1(C(=O)O)Cc2ccccc2C1; Ac6c = NC1(C(=O)O)CCCCC1; Aib = CC(C)(N)C(=O)O

Target: T1, human glucagon-like peptide-1 receptor (GLP-1R) (Homo sapiens, UniProt P43220)
T1 construct: host or cells: CHO chAMPion cells
Assay: Human GLP-1 receptor cell-based assay (flash luminescence, Target Activation phase)
Conditions: CHO chAMPion cells stably co-expressing human GLP-1R, Photina and cAMP-activated calcium channel; agonist activity; normalization by forskolin at 10 μM; ^a) values from single experiment; read-out: EC50 (μM) Target Activation (TA)
Description: CHO chAMPion cells (Axxam SpA; S. Corazza, Assay Drug Dev. Technol. 2009, 7, 304-307) stably co-expressing the human glucagon-like peptide-1 receptor (GLP-1R), the Ca^2+-sensitive photoprotein PHOTINA® (S. Bovolenta et al., J. Biomol. Screen. 2007, 12, 694-704) and a mutated cAMP-activated calcium ion channel (WO2004/083803 A2) were used to monitor GLP-1R signaling after stimulation with an agonist. Activation of the Gas-coupled GPCR GLP-1R was monitored by measuring the flash luminescence of the Ca^2+-sensitive photoprotein as reporter system with FLIPR^TETRA screening instrumentation (Molecular Devices) upgraded with an ICCD Camera (MDC). For data quality check and data analysis the Genedata SCREENER® software was used.
The reference agonist GLP-1 (glucagon-like peptide-1 amide fragment 7-36) and forskolin were purchased from Sigma (cat. G8147 and F6886, respectively) and prepared according to each ligand's specifications. All handling of ligands were done to ensure proper control throughout the experiments. The steps of the implemented workflow and data analysis are mainly as follows:
Stably transfected chAMPion cells are seeded 10000 c/w in 384 MTP in Dulbecco's MEM/nutrient mix F12 (BioWhittaker cat. BE04-687F/U1; 500 mL) supplemented with sodium pyruvate (BioWhittaker cat. BE13-115E; 5 mL of 100 mM solution), HEPES (BioWhittaker cat. BE17-737E; 6.5 mL of 1M solution), sodium bicarbonate (BioWhittaker cat. BE17-613E; 25 mL of 7.5% solution), fetal bovine serum (Euroclone cat. ECS 0180L; 50 mL), penicillin-streptomycin (BioWhittaker cat. DE17-602E; 5 mL of 100×solution), 1 mg/mL G418 (selection antibiotic for GLP-1R) and 200 μg/mL hygromycin in 25 μL/well for 24 hours. On the day of the experiment, plates are removed from the incubator, freed from the growth medium, equilibrated at room temperature for 1 h, loaded with 30 μl/well of Ca^2+ free Tyrode's buffer containing 20 μM coelentrazine and 500 μM IBMX, and incubated for 4 hours at room temperature.
All compounds were tested at 8 concentrations, starting from 50 μM in quadruplicate, intra-plate (dilution step 1:2.15) to determine EC50 values. After incubation, the volume in all the wells is flattened to 20 αL by aspiration with a CYBIO®-VARIO pipettor. First Injection (10 μL of test compounds in Ca^2+ free Tyrode's buffer, DMSO 0.5% v/v and BSA 0.01%; or 10 μL of reference compounds GLP-1 or forskolin in Ca′ free Tyrode's buffer, DMSO 0.5% v/v and BSA 0.01%) is performed by the FLIPR^TETRA and the kinetic response is optionally monitored over a period of 60 seconds. Incubation for 30 minutes at room temperature is followed by the Second Injection (Tyrode's buffer+10 mM CaCl2)) and the kinetic response is monitored over a period of 60 seconds.
The kinetic response is divided into two distinct phases: monitoring the kinetic response after the First Injection, termed Compound Addition (CA), and monitoring the kinetic response after the Second Injection of 10 mM CaCl2, termed Target Activation (TA). Agonist activity of compounds is evaluated in the Target Activation (TA) phase and it is based on normalization to TA activation by forskolin at 10 μM or GLP-1 at 3.16 nM (EC100)
A good correlation was observed between EC50, data normalized by forskolin and by GLP-1.

T1 sequence (P43220 24-463): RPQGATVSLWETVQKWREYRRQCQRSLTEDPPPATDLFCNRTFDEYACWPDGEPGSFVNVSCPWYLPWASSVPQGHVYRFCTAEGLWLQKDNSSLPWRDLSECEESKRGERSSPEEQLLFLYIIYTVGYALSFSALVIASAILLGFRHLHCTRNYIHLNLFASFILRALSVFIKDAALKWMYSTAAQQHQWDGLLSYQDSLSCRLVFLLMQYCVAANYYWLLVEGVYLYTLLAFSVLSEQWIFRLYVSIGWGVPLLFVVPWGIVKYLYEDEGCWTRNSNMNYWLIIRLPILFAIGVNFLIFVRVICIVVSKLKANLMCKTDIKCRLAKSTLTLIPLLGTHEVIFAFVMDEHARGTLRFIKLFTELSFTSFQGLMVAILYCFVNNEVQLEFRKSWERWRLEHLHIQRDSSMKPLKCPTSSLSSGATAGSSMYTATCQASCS

EC50 [µM]	SMILES
0.35 ± 0.3	COc1ccc(C[C@@H]2NC(=O)[C@H](CCC(N)=O)NC(=O)[C@H](Cc3c[nH]c4ccccc34)NC(=O)[C@H](Cc3ccccc3)NC(=O)C3(CCCCC3)NC(=O)[C@H]3CCCN3C(=O)[C@H](Cc3ccc(O)cc3)NC(=O)[C@H](CCC(=O)O)NC(=O)[C@H](Cc3c[nH]c4ccccc34)NC(=O)[C@H](C)NC2=O)cc1 [compound 8, cyclo(-Phe-Trp-Gln-Tyr(Me)-Ala-Trp-Glu-Tyr-^DPro-Chx-)] (cyclo(FWQY(Me)AWEY[dP][Ac6c]))
0.8 ± 0.69	COc1ccc(C[C@@H]2NC(=O)[C@H](CCC(=O)O)NC(=O)[C@H](Cc3c[nH]c4ccccc34)NC(=O)[C@H](C)NC(=O)[C@H](Cc3ccc(O)cc3)NC(=O)[C@H](CCC(N)=O)NC(=O)[C@H](Cc3c[nH]c4ccccc34)NC(=O)[C@H](Cc3ccccc3)NC(=O)C3(CCCCC3)NC(=O)[C@H]3CCCN3C2=O)cc1 [compound 9, cyclo(-Phe-Trp-Gln-Tyr-Ala-Trp-Glu-Tyr(Me)-^DPro-Chx-)] (cyclo(FWQYAWEY(Me)[dP][Ac6c]))
0.39 ± 0.23	C[C@@H]1NC(=O)[C@H](Cc2ccc(O)cc2)NC(=O)[C@H](CCC(N)=O)NC(=O)[C@H](Cc2ccccc2)NC(=O)[C@H](Cc2ccccc2)NC(=O)C2(CCCCC2)NC(=O)[C@H]2CCCN2C(=O)[C@H](CCCNC(=N)N)NC(=O)[C@H](CCC(=O)O)NC(=O)[C@H](Cc2c[nH]c3ccccc23)NC1=O [compound 10, cyclo(-Phe-Phe-Gln-Tyr-Ala-Trp-Glu-Arg-^DPro-Chx-)] (cyclo(FFQYAWER[dP][Ac6c]))
0.54 ± 0.43	C[C@@H]1NC(=O)[C@H](Cc2ccc(O)cc2)NC(=O)[C@H](CCC(N)=O)NC(=O)[C@H](Cc2ccc(Oc3ccccc3)cc2)NC(=O)[C@H](Cc2ccccc2)NC(=O)C(C)(C)NC(=O)[C@H]2CCCN2C(=O)[C@H](CCCNC(=N)N)NC(=O)[C@H](CCC(=O)O)NC(=O)[C@H](Cc2c[nH]c3ccccc23)NC1=O [compound 11, cyclo(-Phe-Tyr(Ph)-Gln-Tyr-Ala-Trp-Glu-Arg-^DPro-Aib-)] (cyclo(F[Tyr(Ph)]QYAWER[dP][Aib]))
0.48 ± 0.24	CC(C)C[C@@H]1NC(=O)[C@H](Cc2c[nH]c3ccccc23)NC(=O)[C@H](Cc2ccccc2)NC(=O)C2(CCCCC2)NC(=O)[C@H]2CCCN2C(=O)[C@H](Cc2ccc(O)cc2)NC(=O)[C@H](CCC(=O)O)NC(=O)[C@H](Cc2c[nH]c3ccccc23)NC(=O)[C@H](C)NC(=O)[C@H](Cc2ccc(O)cc2)NC1=O [compound 12, cyclo(-Phe-Trp-Leu-Tyr-Ala-Trp-Glu-Tyr-^DPro-Chx-)] (cyclo(FWLYAWEY[dP][Ac6c]))
0.66 ± 0.25	CC(C)C[C@@H]1NC(=O)[C@H](CCC(=O)O)NC(=O)[C@H](Cc2ccccc2)NC(=O)C2(Cc3ccccc3C2)NC(=O)[C@H]2CCCN2C(=O)[C@H](Cc2ccc(O)cc2)NC(=O)[C@H](CCC(=O)O)NC(=O)[C@H](Cc2c[nH]c3ccccc23)NC(=O)[C@H](C)NC(=O)[C@H](Cc2ccc(O)cc2)NC1=O [compound 13, cyclo(-Phe-Glu-Leu-Tyr-Ala-Trp-Glu-Tyr-^DPro-Ind-)] (cyclo(FELYAWEY[dP][Aic]))
0.72 ± 0.43	C[C@@H]1NC(=O)[C@H](Cc2ccc(O)cc2)NC(=O)[C@H](CCC(N)=O)NC(=O)[C@H](Cc2ccc(O)cc2)NC(=O)[C@H](Cc2ccccc2)NC(=O)C2(CCCCC2)NC(=O)[C@H]2CCCN2C(=O)[C@H](Cc2ccc(O)cc2)NC(=O)[C@H](CCC(=O)O)NC(=O)[C@H](Cc2c[nH]c3ccccc23)NC1=O [compound 14, cyclo(-Phe-Tyr-Gln-Tyr-Ala-Trp-Glu-Tyr-^DPro-Chx-)] (cyclo(FYQYAWEY[dP][Ac6c]))
0.7 ± 0.42	C[C@@H]1NC(=O)[C@H](Cc2ccc(O)cc2)NC(=O)[C@H](CCC(N)=O)NC(=O)[C@H](Cc2c[nH]c3ccccc23)NC(=O)[C@H](Cc2ccccc2)NC(=O)C2(CCCCC2)NC(=O)[C@H]2CCCN2C(=O)[C@H](Cc2cncn2Cc2ccccc2)NC(=O)[C@H](CCC(=O)O)NC(=O)[C@H](Cc2c[nH]c3ccccc23)NC1=O [compound 15, cyclo(-Phe-Trp-Gln-Tyr-Ala-Trp-Glu-His(Bn)-^DPro-Chx-)] (cyclo(FWQYAWE[His(π-Bn)][dP][Ac6c]))
0.41	CC(C)C[C@@H]1NC(=O)[C@H](CCC(=O)O)NC(=O)[C@H](Cc2ccccc2)NC(=O)C2(CCCCC2)NC(=O)[C@H]2CCCN2C(=O)[C@H](Cc2c[nH]c3ccccc23)NC(=O)[C@H](CCC(=O)O)NC(=O)[C@H](Cc2c[nH]c3ccccc23)NC(=O)[C@H](C)NC(=O)[C@H](Cc2ccc(O)cc2)NC1=O [compound 16, cyclo(-Phe-Glu-Leu-Tyr-Ala-Trp-Glu-Trp-^DPro-Chx-)] (cyclo(FELYAWEW[dP][Ac6c]))
0.6 ± 0.29	C[C@@H]1NC(=O)[C@H](Cc2ccc(O)cc2)NC(=O)[C@H](CCC(N)=O)NC(=O)[C@H](Cc2c[nH]c3ccccc23)NC(=O)[C@H](Cc2ccccc2)NC(=O)C2(CCCCC2)NC(=O)[C@H]2CCCN2C(=O)[C@H](Cc2c[nH]c3ccccc23)NC(=O)[C@H](CCC(=O)O)NC(=O)[C@H](Cc2c[nH]c3ccccc23)NC1=O [compound 17, cyclo(-Phe-Trp-Gln-Tyr-Ala-Trp-Glu-Trp-^DPro-Chx-)] (cyclo(FWQYAWEW[dP][Ac6c]))
0.82 ± 0.55	C[C@@H]1NC(=O)[C@H](Cc2ccc(O)cc2)NC(=O)[C@H](CCC(N)=O)NC(=O)[C@H](Cc2c[nH]c3ccccc23)NC(=O)[C@H](Cc2ccccc2)NC(=O)C2(CCCCC2)NC(=O)[C@H]2CCCN2C(=O)[C@H](Cc2c[nH]c3ccc(O)cc23)NC(=O)[C@H](CCC(=O)O)NC(=O)[C@H](Cc2c[nH]c3ccccc23)NC1=O [compound 18, cyclo(-Phe-Trp-Gln-Tyr-Ala-Trp-Glu-Trp(5OH)-^DPro-Chx-)] (cyclo(FWQYAWE[Trp(5-OH)][dP][Ac6c]))
0.72 ± 0.38	C[C@@H]1NC(=O)[C@H](Cc2ccc(O)cc2)NC(=O)[C@H](CCC(N)=O)NC(=O)[C@H](Cc2cccnc2)NC(=O)[C@H](Cc2ccccc2)NC(=O)C2(CCCCC2)NC(=O)[C@H]2CCCN2C(=O)[C@H](CCCNC(=N)N)NC(=O)[C@H](CCC(=O)O)NC(=O)[C@H](Cc2c[nH]c3ccccc23)NC1=O [compound 19, cyclo(-Phe-3Pal-Gln-Tyr-Ala-Trp-Glu-Arg-^DPro-Chx-)] (cyclo(F[3Pal]QYAWER[dP][Ac6c]))
0.59 ± 0.35	CC(C)C[C@@H]1NC(=O)[C@H](Cc2c[nH]cn2)NC(=O)[C@H](Cc2ccccc2)NC(=O)C2(CCCCC2)NC(=O)[C@H]2CCCN2C(=O)[C@H](Cc2ccc(O)cc2)NC(=O)[C@H](CCC(=O)O)NC(=O)[C@H](Cc2c[nH]c3ccccc23)NC(=O)[C@H](C)NC(=O)[C@H](Cc2ccc(O)cc2)NC1=O [compound 20, cyclo(-Phe-His-Leu-Tyr-Ala-Trp-Glu-Tyr-^DPro-Chx-)] (cyclo(FHLYAWEY[dP][Ac6c]))
0.67 ± 0.28	C[C@@H]1NC(=O)[C@H](Cc2ccc(O)cc2)NC(=O)[C@H](CCC(N)=O)NC(=O)[C@H](Cc2ccc(N)cc2)NC(=O)[C@H](Cc2ccccc2)NC(=O)C2(CCCCC2)NC(=O)[C@H]2CCCN2C(=O)[C@H](CCCNC(=N)N)NC(=O)[C@H](CCC(=O)O)NC(=O)[C@H](Cc2c[nH]c3ccccc23)NC1=O [compound 21, cyclo(-Phe-Phe(4NH2)-Gln-Tyr-Ala-Trp-Glu-Arg-^DPro-Chx-)] (cyclo(F[Phe(4-NH2)]QYAWER[dP][Ac6c]))
